Where two headings read alike, the source gives them in different places.
Legend:
[1] = tested on: IFNγ-induced STAT1 phosphorylation (pSTAT1) in B16F10 cells; assay: B16F10 Phospho-STAT1 HTRF proximal pharmacodynamic (PD) assay; assay type: cell-based, murine; details: for EC50: B16-F10, B16F10 cells; for Dihydrobenzofuran or Indoline x-fold>potency cellular: x-fold versus corresponding chromane comparator, B16F10 pSTAT1
Procedure, shortened: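 B16F10 cells in phenol red-free DMEM/10% FBS were dosed for 3 h at 37 °C in a 10-point, 3-fold series from 50 μM, then stimulated with 100 nM mouse IFNγ for 10 min and stopped with 3.3 μM staurosporine. pSTAT1 in lysates was measured by HTRF (665 nm emission), and EC50s were fitted from dose-response curves.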

[2] = biological target: His tagged PTPN2 (TC45) protein (Homo sapiens (Human), UniProt P17706); assay: PTPN2 Mobility Shift Assay (MSA); assay type: biochemical; details: for Dihydrobenzofuran or Indoline x-fold>potency biochemical: x-fold versus corresponding chromane comparator, PTPN2 MSA
His tagged PTPN2 (TC45) protein, sequence (P17706 other isoform, or with tags, fused parts or gaps): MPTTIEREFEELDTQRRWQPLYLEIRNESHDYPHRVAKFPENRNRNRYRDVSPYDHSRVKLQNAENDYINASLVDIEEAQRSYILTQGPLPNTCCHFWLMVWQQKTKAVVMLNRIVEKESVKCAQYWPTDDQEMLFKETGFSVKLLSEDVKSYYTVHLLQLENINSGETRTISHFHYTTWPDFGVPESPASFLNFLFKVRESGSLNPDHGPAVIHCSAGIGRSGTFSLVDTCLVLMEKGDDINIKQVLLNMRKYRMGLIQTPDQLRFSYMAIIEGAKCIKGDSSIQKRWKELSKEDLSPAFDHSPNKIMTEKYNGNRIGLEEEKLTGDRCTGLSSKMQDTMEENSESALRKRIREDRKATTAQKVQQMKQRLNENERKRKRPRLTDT
Procedure, shortened: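 His-tagged human PTPN2 (TC45), 0.5 nM, preincubated with compound (12-point, 1:3) 10 min at room temperature in HEPES pH 7.5 buffer with EDTA, EGTA, DTT. Dephosphorylation of 2 μM fluorescent phospho-insulin-receptor peptide over 10 min read by mobility shift; IC50 from % inhibition.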

[3] = biological target: His tagged full-length PTPN1 protein (Homo sapiens (Human), UniProt P18031); assay: PTPN1 Mobility Shift Assay (MSA); assay type: biochemical; details: enzyme 0.5 nM, substrate 2 μM
His tagged full-length PTPN1 protein, sequence (P18031 whole entry): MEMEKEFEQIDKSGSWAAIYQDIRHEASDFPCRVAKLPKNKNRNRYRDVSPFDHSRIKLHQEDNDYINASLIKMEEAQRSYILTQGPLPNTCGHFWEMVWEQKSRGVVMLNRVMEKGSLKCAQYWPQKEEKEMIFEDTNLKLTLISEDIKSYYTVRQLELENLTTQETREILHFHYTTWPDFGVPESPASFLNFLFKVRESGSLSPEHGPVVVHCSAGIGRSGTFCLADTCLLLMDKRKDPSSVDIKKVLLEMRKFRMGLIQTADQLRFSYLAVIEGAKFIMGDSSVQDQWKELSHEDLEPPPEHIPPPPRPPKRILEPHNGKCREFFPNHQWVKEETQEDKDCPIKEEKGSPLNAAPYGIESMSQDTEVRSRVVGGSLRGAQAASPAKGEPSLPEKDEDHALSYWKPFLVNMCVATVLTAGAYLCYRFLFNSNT
Procedure, shortened: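 Enzyme at 0.5 nM was preincubated with compound (12-point, 1:3 dilution) for 10 min at room temperature in pH 7.5 HEPES buffer with EDTA, EGTA and DTT. OG488-labelled phosphorylated insulin-receptor peptide at 2 µM was then added for 10 min. After quench, % substrate dephosphorylation was read by mobility shift, and IC50 came from % inhibition.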

[4] = 3 hours compound, 100 nM mouse IFNγ 10 minutes, read-out: B16F10 IFNγ Induced pSTAT1 EC50
[5] = Mus musculus, Table 3, dihydrobenzofuran or indoline compound (X = O or NH), read-out: pSTAT1 EC50
[6] = Table 3, dihydrobenzofuran or indoline compound (X = O or NH)

Row | Compound | EC50 [1, 4] | IC50 ([2]; enzyme 0.5 nM, substrate 2 μM) | IC50 [3] | EC50 [1, 5] | Dihydrobenzofuran or Indoline x-fold>potency cellular [1] | IC50 [2, 6] | Dihydrobenzofuran or Indoline x-fold>potency biochemical [2]
1 | CCC(CC)CNC[C@H]1Cc2c(cc(O)c(N3CC(=O)NS3(=O)=O)c2F)N1 [Compound 134, 5-[(2R)-2-{[(2-ethylbutyl)amino]methyl}-4-fluoro-6-hydroxy-2,3-dihydro-1H-indol-5-yl]-1λ^6,2,5-thiadiazolidine-1,1,3-trione] | 0.947 µM | 0.01 to 0.1 µM | 0.01 to 0.1 µM | – | – | – | –
2 | CCCNC[C@H]1Cc2c(cc(O)c(N3CC(=O)NS3(=O)=O)c2F)N1 [Compound 135, 5-{(2R)-4-fluoro-6-hydroxy-2-[(propylamino)methyl]-2,3-dihydro-1H-indol-5-yl}-1λ^6,2,5-thiadiazolidine-1,1,3-trione] | 0.756 µM | 0.01 to 0.1 µM | 0.01 to 0.1 µM | – | – | – | –
3 | COCCNC[C@H]1Cc2c(cc(O)c(N3CC(=O)NS3(=O)=O)c2F)N1 [Compound 136, 5-[(2R)-4-fluoro-6-hydroxy-2-{[(2-methoxyethyl)amino]methyl}-2,3-dihydro-1H-indol-5-yl]-1λ^6,2,5-thiadiazolidine-1,1,3-trione] | 1.23 µM | 0.01 to 0.1 µM | 0.01 to 0.1 µM | – | – | – | –
4 | O=C1CN(c2c(O)cc3c(c2F)C[C@H](CNCC2CCC2)N3)S(=O)(=O)N1 [Compound 137, 5-[(2R)-2-{[(cyclobutylmethyl)amino]methyl}-4-fluoro-6-hydroxy-2,3-dihydro-1H-indol-5-yl]-1λ^6,2,5-thiadiazolidine-1,1,3-trione] | 0.904 µM | 0.01 to 0.1 µM | 0.01 to 0.1 µM | – | – | – | –
5 | O=C1CN(c2c(O)cc3c(c2F)C[C@H](CNCC2CCOCC2)N3)S(=O)(=O)N1 [Compound 138, 5-[(2R)-4-fluoro-6-hydroxy-2-({[(oxan-4-yl)methyl]amino}methyl)-2,3-dihydro-1H-indol-5-yl]-1λ^6,2,5-thiadiazolidine-1,1,3-trione] | 1.56 µM | 0.01 to 0.1 µM | 0.01 to 0.1 µM | 156 µM | 20.6 | 0.0216 µM | 0.8
6 | CC(C)CCNC[C@H]1Cc2c(cc(O)c(N3CC(=O)NS3(=O)=O)c2F)N1 [Compound 139, 5-[(2R)-4-fluoro-6-hydroxy-2-{[(3-methylbutyl)amino]methyl}-2,3-dihydro-1H-indol-5-yl]-1λ^6,2,5-thiadiazolidine-1,1,3-trione] | 1.56 µM | 0.01 to 0.1 µM | 0.01 to 0.1 µM | 1.56 µM | 4.5 | 0.0198 µM | 0.8
7 | O=C1CN(c2c(O)cc3c(c2F)C[C@H](CNCCC(F)F)N3)S(=O)(=O)N1 [Compound 140, 5-[(2R)-2-{[(3,3-difluoropropyl)amino]methyl}-4-fluoro-6-hydroxy-2,3-dihydro-1H-indol-5-yl]-1λ^6,2,5-thiadiazolidine-1,1,3-trione] | 0.701 µM | 0.01 to 0.1 µM | 0.01 to 0.1 µM | 0.701 µM | 5.1 | 0.0152 µM | 0.6
8 | O=C1CN(c2c(O)cc3c(c2F)C[C@H](CNCCC(F)(F)F)N3)S(=O)(=O)N1 [Compound 141, 5-[(2R)-4-fluoro-6-hydroxy-2-{[(3,3,3-trifluoropropyl)amino]methyl}-2,3-dihydro-1H-indol-5-yl]-1λ^6,2,5-thiadiazolidine-1,1,3-trione] | 0.704 µM | 0.01 to 0.1 µM | 0.01 to 0.1 µM | – | – | – | –
9 | CCC(C)CNC[C@H]1Cc2c(cc(O)c(N3CC(=O)NS3(=O)=O)c2F)N1 (stereo partly drawn) [Compound 142, 5-[(2R)-4-fluoro-6-hydroxy-2-{[(2-methylbutyl)amino]methyl}-2,3-dihydro-1H-indol-5-yl]-1λ^6,2,5-thiadiazolidine-1,1,3-trione] | 1.14 µM | 0.01 to 0.1 µM | 0.01 to 0.1 µM | – | – | – | –
10 | O=C1CN(c2c(O)cc3c(c2F)C[C@H](CNCC2CC(F)(F)C2)N3)S(=O)(=O)N1 [Compound 143, 5-[(2R)-2-({[(3,3-difluorocyclobutyl)methyl]amino}methyl)-4-fluoro-6-hydroxy-2,3-dihydro-1H-indol-5-yl]-1λ^6,2,5-thiadiazolidine-1,1,3-trione] | 1 µM | 0.01 to 0.1 µM | 0.01 to 0.1 µM | – | – | – | –
